From patent US7183267B2, “β-lactamase inhibitors and methods of use thereof” (priority 2003, dated 2007)

biological target: T1, TEM-1 β-lactamase (Escherichia coli, UniProt P62593); test: TEM-1 β-lactamase inhibition assay (nitrocefin hydrolysis, 486 nm); type: biochemical; conditions: Ki from Lineweaver-Burke Analysis, values in parenthesis; Lineweaver-Burke analysis
Protocol: The inhibition of TEM-1 β-lactamase was determined spectrophotometrically. B-lactamase activity was followed by measuring the hydrolysis of nitrocefin, [3-(2,4-dinitrostyryl)-(6R, 7R)-7-(2-thienylacetamido)-ceph-3-em-4-carboxylic acid, E-isomer], (Calbiochem, San Diego, Calif., USA) at 486 nm. Inhibition assays were performed at 25° C. in 50 mM sodium phosphate, 5% DMSO, pH 7.0. […] Inhibitor was added to the enzyme and incubated for ten minutes before the addition of substrate. Inhibition constants (Ki) for the inhibitors are obtained at the desired temperature and solvent conditions by measuring the rate of substrate hydrolysis at increasing amounts of inhibitors.
(§1) The competitive inhibition of β-lactamase was determined spectrophotometrically using a Varian (Walnut Creek, Calif.) Cary 100 UV-Visible spectrophotometer. β-lactamase activity was followed by measuring the hydrolysis of nitrocefin, [3-(2,4-dinitrostyryl)-(6R, 7R)-7-(2-thienylacetamido)-ceph-3-em-4-carboxylic acid, E-isomer], (Calbiochem, San Diego, Calif.) at 486 nm. Inhibition assays were performed at 25° C. in 50 mM sodium phosphate, 5% DMSO, pH 7.0. […] Penicillin G (Sigma, St. Louis, Mo.) was also used as a substrate to determine KM and kcat.
(§2) Inhibitor was added to protein and incubated for ten minutes before the addition of substrate. Inhibition constants were determined by measuring the loss of P-lactamase activity with increasing inhibitor concentrations and fitting the data to standard equations for competitive inhibition.
(§3) These methods can also be used to express and assay recombinant TEM-1 variant of β-lactamase.

T1 sequence (P62593 24-286 limits assumed): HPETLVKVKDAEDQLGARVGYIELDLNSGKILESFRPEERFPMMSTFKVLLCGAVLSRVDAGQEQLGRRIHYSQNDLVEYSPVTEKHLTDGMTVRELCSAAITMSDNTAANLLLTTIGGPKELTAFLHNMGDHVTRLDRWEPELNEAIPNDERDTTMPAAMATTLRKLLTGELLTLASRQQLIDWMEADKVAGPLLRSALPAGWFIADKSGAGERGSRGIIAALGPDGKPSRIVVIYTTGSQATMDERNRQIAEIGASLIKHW

SMILES	Ki [µM]
O=C(Oc1ccccc1Br)c1cc(B(O)O)cc([N+](=O)[O-])c1 [(1u), 3-(2-Bromophenoxycarbonyl)-5-nitro-phenylboronic acid]	1.68
O=C(Oc1c(Cl)cccc1Cl)c1cc(B(O)O)cc([N+](=O)[O-])c1 [Compound (1n), 3-(2,6-Dichlorophenoxycarbonyl)-5-nitrophenylboronic acid]	0.62
O=C(Oc1ccccc1)c1cc(B(O)O)cc([N+](=O)[O-])c1 [Compound (1t), 3-Phenoxycarbonyl-5-nitrophenylboronic acid]	6.54
O=C(OCc1c(Cl)cccc1Cl)c1cc(B(O)O)cc([N+](=O)[O-])c1 [Compound (3a), 3-(2,6-Dichlorobenzyloxycarbonyl)-5-nitrophenylboronic]	4.97
O=C(OCc1cccc([N+](=O)[O-])c1)c1cc(B(O)O)cc([N+](=O)[O-])c1 [Compound (3b), 3-(3-Nitrobenzyloxycarbonyl)-5-nitrophenylboronic acid]	2.76
O=C(OCc1cccc(Cl)c1)c1cc(B(O)O)cc([N+](=O)[O-])c1 [Compound (3c), 3-(3-Chlorobenzyloxycarbonyl)-5-nitrophenylboronic acid]	2.35

same assay, conditions: Ki, 25° C., 50 mM sodium phosphate, 5% DMSO, pH 7.0; enzyme 5 nM, nitrocefin 167 μM

SMILES	Ki [µM]
Cc1cccc(OC(=O)c2cc(B(O)O)cc([N+](=O)[O-])c2)c1 [(1m), 3-(3-Methylphenoxycarbonyl)-5-nitrophenylboronic acid]	114 ± 12
O=C(Oc1ccncc1)c1cc(B(O)O)cc([N+](=O)[O-])c1 [(1r), 3-(4-pyridyloxycarbonyl)-5-nitro-phenylboronic acid]	138 ± 2.7
O=C(Oc1ccccc1Br)c1cc(B(O)O)cc([N+](=O)[O-])c1 [(1u), 3-(2-Bromophenoxycarbonyl)-5-nitro-phenylboronic acid]	25 ± 2.5
O=C(Oc1c(Cl)cccc1[N+](=O)[O-])c1ccc(B(O)O)cc1F [(8a), 4-(2-Chloro-6-nitrophenoxycarbonyl)-3-fluorophenylboronic acid]	43 ± 1.6
CCOC(=O)c1ccc(OC(=O)c2cc(B(O)O)cc([N+](=O)[O-])c2)cc1 [Compound (1e), 3-(4-Ethoxycarbonylphenoxycarbonyl)-5-nitrophenylboronic acid]	> 1000
Cc1ccccc1OC(=O)c1cc(B(O)O)cc([N+](=O)[O-])c1 [Compound (1k), 3-(2-Methylphenoxycarbonyl)-5-nitro-phenylboronic acid]	130 ± 18
COc1ccccc1OC(=O)c1cc(B(O)O)cc([N+](=O)[O-])c1 [Compound (1l), 3-(2-Methoxylphenoxycarbonyl)-5-nitrophenylboronic acid]	116 ± 7
O=C(Oc1c(Cl)cccc1Cl)c1cc(B(O)O)cc([N+](=O)[O-])c1 [Compound (1n), 3-(2,6-Dichlorophenoxycarbonyl)-5-nitrophenylboronic acid]	8.8 ± 0.5
O=C(Oc1ccccc1F)c1cc(B(O)O)cc([N+](=O)[O-])c1 [Compound (1o), 3-(2-Fluorophenoxycarbonyl)-5-nitrophenylboronic acid]	49.3 ± 4.6
O=C(Oc1c(F)cccc1F)c1cc(B(O)O)cc([N+](=O)[O-])c1 [Compound (1p), 3-(2,6-Difluorophenoxycarbonyl)-5-nitrophenylboronic acid]	19.8 ± 1.3
O=C(Oc1ccc(F)cc1)c1cc(B(O)O)cc([N+](=O)[O-])c1 [Compound (1q), 3-(4-Fluorophenoxycarbonyl)-5-nitrophenylboronic acid]	100 ± 8
O=C(Oc1cccnc1Cl)c1cc(B(O)O)cc([N+](=O)[O-])c1 [Compound (1s), 3-(2-Chloro-3-pyridyloxycarbonyl)-5-nitrophenylboronic acid]	42.3 ± 2.4
O=C(Oc1ccccc1)c1cc(B(O)O)cc([N+](=O)[O-])c1 [Compound (1t), 3-Phenoxycarbonyl-5-nitrophenylboronic acid]	95 ± 8.7
O=C(OCc1c(Cl)cccc1Cl)c1cc(B(O)O)cc([N+](=O)[O-])c1 [Compound (3a), 3-(2,6-Dichlorobenzyloxycarbonyl)-5-nitrophenylboronic]	34 ± 2.9
O=C(OCc1cccc([N+](=O)[O-])c1)c1cc(B(O)O)cc([N+](=O)[O-])c1 [Compound (3b), 3-(3-Nitrobenzyloxycarbonyl)-5-nitrophenylboronic acid]	27 ± 3.4
O=C(OCc1cccc(Cl)c1)c1cc(B(O)O)cc([N+](=O)[O-])c1 [Compound (3c), 3-(3-Chlorobenzyloxycarbonyl)-5-nitrophenylboronic acid]	25 ± 1.5

same assay, conditions: Ki, TEM-1 β-lactamase

SMILES	Ki [µM]
O=C(Oc1c(Cl)cccc1Cl)c1cc(B(O)O)cc([N+](=O)[O-])c1 [Compound (1n), 3-(2,6-Dichlorophenoxycarbonyl)-5-nitrophenylboronic acid]	8.8
O=C(Oc1c(F)cccc1F)c1cc(B(O)O)cc([N+](=O)[O-])c1 [Compound (1p), 3-(2,6-Difluorophenoxycarbonyl)-5-nitrophenylboronic acid]	19.8

biological target: T1, TEM-1 β-lactamase; test: Isothermal titration calorimetry, binding to TEM-1 β-lactamase (Example 17); conditions: ITC
Protocol: (§4) Isothermal titration calorimetry was performed on a high-precision VP-ITC titration calorimeter (Microcal Inc., Northampton, Mass.). β-Lactamase solutions were titrated with inhibitors in 50 mM sodium phosphate, 2% DMSO, pH 7.0, with β-lactamase concentrations ranging from 15 to 25 μM and inhibitor concentrations ranging from 300 to 1000 μM. The heat evolved from each injection was obtained by integrating the calorimetric signal. Heat of binding was obtained as the difference between the heat of reaction and the heat of inhibitor dilution. Data were analyzed using Origin 7.0 (OriginLab Corporation, Northampton, Mass.).
as §3
Also shown are the results obtained for β-lactamase variant TEM-1.

SMILES	ΔG [kcal/mol]	ΔH [kcal/mol]	−TΔS [kcal/mol]
O=C(Oc1c(Cl)cccc1Cl)c1cc(B(O)O)cc([N+](=O)[O-])c1 [Compound (1n), 3-(2,6-Dichlorophenoxycarbonyl)-5-nitrophenylboronic acid]	-5.608	-1.173	-4.435
O=C(Oc1c(F)cccc1F)c1cc(B(O)O)cc([N+](=O)[O-])c1 [Compound (1p), 3-(2,6-Difluorophenoxycarbonyl)-5-nitrophenylboronic acid]	-5.916	-6.715	0.799

biological target: T2, AmpC β-lactamase (Escherichia coli, UniProt P00811); test: AmpC β-lactamase competitive inhibition assay (nitrocefin hydrolysis); type: biochemical; conditions: not given
T2 construct: made in house; host or cells: E. coli BL21 (DE3)
Protocol: The gene for AmpC β-lactamase (accession number P00811) was obtained from Escherichia coli K12 strain W3110 (American Type Culture Collection, Rockville Md.). E. coli was grown and plasmid (F-lacIq lacPL8 ampC::lambdacI+) was isolated via Qiagen (Valencia, Calif.) mini prep. The gene for AmpC was amplified in two pieces via polymerase chain reaction, ligated and purified by agarose gel electrophoresis. The ligated gene was inserted into a pET200 vector via a TOPO reaction (Invitrogen, Carlsbad, Calif.).
BL21 (DE3) (Invitrogen) cells were transformed by heat-shock with the prepared plasmid. These cells were grown to an OD600 of 0.8 at 37° C. Isopropylthiogalactoside (IPTG) was added to 1 mM, incubation temperature decreased to 25° C. and the cells were grown for an additional 18 hours. After 18 hours, the E. coli was pelleted by centrifugation, and discarded. The growth media was concentrated and dialyzed versus 100 mM Tris, pH 7.0. This solution was run through an equilibrated Q-resin column, and washed with excess 100 mM Tris, pH 7.0.
as §1, §2

T2 sequence (P00811 20-377): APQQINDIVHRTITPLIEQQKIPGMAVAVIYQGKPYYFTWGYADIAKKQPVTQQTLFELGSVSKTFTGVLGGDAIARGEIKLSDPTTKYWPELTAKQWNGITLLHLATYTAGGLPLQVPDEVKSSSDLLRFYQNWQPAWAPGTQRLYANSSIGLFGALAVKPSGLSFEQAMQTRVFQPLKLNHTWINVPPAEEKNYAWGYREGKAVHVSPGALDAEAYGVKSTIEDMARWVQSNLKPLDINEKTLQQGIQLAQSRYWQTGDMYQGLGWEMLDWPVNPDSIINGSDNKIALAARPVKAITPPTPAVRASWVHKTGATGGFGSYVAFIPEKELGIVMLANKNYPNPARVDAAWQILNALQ

SMILES	Ki [µM]
O=C(Oc1c(Cl)cccc1[N+](=O)[O-])c1ccc(B(O)O)cc1F [(8a), 4-(2-Chloro-6-nitrophenoxycarbonyl)-3-fluorophenylboronic acid]	0.913

biological target: T2, AmpC β-lactamase; test: not given; conditions: binding to AmpC; ITC
Protocol: as §4
Isothermal titration calorimetry was undertaken to determine the thermodynamic characteristics of binding to AmpC β-lactamase.

SMILES	ΔG [kcal/mol]	ΔH [kcal/mol]	−TΔS [kcal/mol]
O=C(Oc1c(Cl)cccc1[N+](=O)[O-])c1ccc(B(O)O)cc1F [(8a), 4-(2-Chloro-6-nitrophenoxycarbonyl)-3-fluorophenylboronic acid]	-8.19	-8.486	0.296
